For one molecule, Tumor volume, Tumor growth and IC50 results are on record in patent publication US11883419B2, “DNA polymerase gamma inhibitor and uses thereof” (ACIBADEM MEHMET ALI AYDINLAR UNIVERSITESI, priority 2018, dated 2024).

For data set [1], the system named is HCT116 xenograft. Briefly: HCT116 xenograft study in nude mice. The data set is classed as in vivo. The settings on record: all doses. The text has this:
Tumor volume (mm^3) vs days the graph is indicated in FIG. 6 (a), body weight vs days after injection graph is in FIG. 6 (b), and FIG. 6 (c) is HCT116 Control vs […] image.

Data set [2] deals with Lovo xenograft. Briefly: Lovo xenograft study in nude mice. The class given is in vivo.
The test system of data set [3] is HCT116 (MLH1 deficient). Put plainly: xCELLigence real time cell proliferation/cytotoxicity. The settings on record: read-out: IC50, cytotoxicity; HCT116, 5, 10, 20 μM, 72 h, RTCA software.

What is called IC50 is the concentration that gives 50% inhibition. `Nc1c(/N=N/c2ccc(-c3ccc(/N=N/c4cc(S(=O)(=O)O)c5ccccc5c4N)cc3)cc2)cc(S(=O)(=O)O)c2ccccc12` [Formula II]: the Tumor volume result in data set [1] was “decreased tumor volume in all doses”. The Tumor growth entry in data set [2] is on record as “did not affect the tumor growth”. Moreover, in data set [3], the IC50 was found to be 5.19 µM.
